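Following 48 hours of exposure in 96-well plates, responses at five concentrations were used to interpolate endpoints linearly. Abbreviation: GI50, concentration required for 50% inhibition of growth.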 The source made the active and inactive calls. Cut-off read from the data, not from the text of the source: active = GI50 up to about 1.1 µM and inactive = higher.
What was measured:
Assay in all cases: NCI anticancer screen, dose series, 48 h
ACHN = tested on: ACHN
CAKI-1 = tested on: CAKI-1
CCRF-CEM = tested on: CCRF-CEM
EKVX = tested on: EKVX
HCT-116 = tested on: HCT-116
HL-60 = tested on: HL-60
HOP-62 = tested on: HOP-62
HOP-92 = tested on: HOP-92
MDA-MB-435 = tested on: MDA-MB-435
NCI-H226 = tested on: NCI-H226
NCI-H522 = tested on: NCI-H522
OVCAR-3 = tested on: OVCAR-3
OVCAR-5 = tested on: OVCAR-5
RXF 393 = tested on: RXF 393
SF-295 = tested on: SF-295
SF-539 = tested on: SF-539
SK-MEL-28 = tested on: SK-MEL-28
SR = tested on: SR
TK-10 = tested on: TK-10
KM-20L2 = tested on: KM-20L2

Measured: GI50

NC(Cc1ccccc1)C(=O)NC(Cc1ccccc1)NC(=O)C(Cc1c[nH]c2ccccc12)C(=O)O (stereo unspecified)
inactive: ACHN > 100 µM | CAKI-1 > 100 µM | CCRF-CEM > 100 µM | EKVX > 100 µM | HCT-116 > 100 µM | HL-60 > 100 µM | HOP-62 > 100 µM | HOP-92 34.8 µM | MDA-MB-435 > 100 µM | NCI-H226 > 100 µM | NCI-H522 > 100 µM | OVCAR-3 > 100 µM | OVCAR-5 > 100 µM | RXF 393 > 100 µM | SF-295 > 100 µM | SF-539 > 100 µM | SK-MEL-28 > 100 µM | SR > 100 µM | TK-10 > 100 µM

COc1cccc(/C=C/c2cnc3ccccc3n2)c1OC
inactive: ACHN 50.1 µM | CAKI-1 45.2 µM | CCRF-CEM 35.6 µM | EKVX 33 µM | HCT-116 30.1 µM | HL-60 34.4 µM | HOP-62 24.7 µM | HOP-92 23.7 µM | MDA-MB-435 32 µM | NCI-H226 37.2 µM | NCI-H522 17 µM | OVCAR-3 37.2 µM | OVCAR-5 72.6 µM | RXF 393 21.8 µM | SF-295 46.1 µM | SF-539 45.7 µM | SK-MEL-28 44.2 µM | SR > 100 µM | TK-10 50.5 µM

Clc1nc(Cl)c(-c2ccccc2)c(Cl)n1
active: ACHN 0.29 µM
inactive: CAKI-1 1.87 µM | CCRF-CEM 2.27 µM | EKVX 1.8 µM | HCT-116 1.84 µM | HL-60 2.15 µM | HOP-62 16.9 µM | HOP-92 5.45 µM | MDA-MB-435 3.24 µM | NCI-H226 2.3 µM | NCI-H522 1.55 µM | OVCAR-3 3.57 µM | OVCAR-5 4.61 µM | RXF 393 2.18 µM | SF-295 12.7 µM | SF-539 5.42 µM | SK-MEL-28 5.96 µM | SR 2.48 µM | TK-10 10.1 µM

O=[N+]([O-])c1nccn1CCCNCCCn1ccnc1[N+](=O)[O-]
inactive: ACHN > 100 µM | CAKI-1 > 100 µM | CCRF-CEM > 100 µM | EKVX > 100 µM | HCT-116 > 100 µM | HL-60 > 100 µM | HOP-62 > 100 µM | HOP-92 > 100 µM | MDA-MB-435 > 100 µM | NCI-H226 > 100 µM | NCI-H522 > 100 µM | OVCAR-3 > 100 µM | OVCAR-5 > 100 µM | RXF 393 > 100 µM | SF-295 > 100 µM | SF-539 > 100 µM | SK-MEL-28 > 100 µM | SR > 100 µM | TK-10 > 100 µM

CN(C)Cc1c(O)ccc2c1c1c(n2C)C(=O)c2ccccc2C1=O
inactive: ACHN 2.31 µM | CAKI-1 4.52 µM | EKVX 13.5 µM | HCT-116 9.95 µM | HL-60 7.38 µM | HOP-62 15.1 µM | HOP-92 12.6 µM | MDA-MB-435 4.35 µM | NCI-H226 11 µM | NCI-H522 3.95 µM | OVCAR-3 4.75 µM | OVCAR-5 4.16 µM | RXF 393 12.4 µM | SF-295 6.17 µM | SF-539 10.3 µM | SK-MEL-28 4.69 µM | TK-10 7.41 µM
active: CCRF-CEM 0.492 µM | SR 1.06 µM

Cc1ccc(S(=O)(=O)C2CC2(Cl)Cl)cc1 (stereo unspecified)
inactive: ACHN 25.6 µM | CAKI-1 26.6 µM | CCRF-CEM 11.1 µM | EKVX > 100 µM | HCT-116 20.4 µM | HOP-92 26 µM | KM-20L2 > 100 µM | NCI-H226 > 100 µM | NCI-H522 12.5 µM | OVCAR-3 19.9 µM | OVCAR-5 > 100 µM | RXF 393 15.1 µM | SF-295 38.6 µM | SF-539 31.4 µM | SK-MEL-28 53.1 µM | TK-10 > 100 µM

Cc1ccc2c(c1)C1(C)OC(C=CC1=O)O2 (stereo unspecified)
inactive: EKVX 2.45 µM | HOP-62 3.43 µM | NCI-H226 3.02 µM | OVCAR-5 1.85 µM | SF-295 2.79 µM | TK-10 1.4 µM
active: ACHN 0.522 µM | CAKI-1 0.31 µM | CCRF-CEM 0.114 µM | HCT-116 0.204 µM | HL-60 0.104 µM | HOP-92 0.435 µM | MDA-MB-435 0.182 µM | NCI-H522 0.0769 µM | OVCAR-3 0.344 µM | RXF 393 0.445 µM | SF-539 0.488 µM | SK-MEL-28 0.586 µM | SR 0.106 µM

N#CC1=C(c2ccccc2)OC2(N)OC(c3ccccc3)=C(C#N)C12C#N (stereo unspecified)
inactive: ACHN > 100 µM | CAKI-1 84.1 µM | CCRF-CEM 56.1 µM | EKVX > 100 µM | HOP-62 > 100 µM | KM-20L2 > 100 µM | OVCAR-3 36.9 µM | OVCAR-5 > 100 µM | RXF 393 69.3 µM | SF-295 > 100 µM | SF-539 > 100 µM | SK-MEL-28 > 100 µM | TK-10 > 100 µM

O=C(O)/C(Cl)=C(\Cl)Nc1cccc(C(F)(F)F)c1
inactive: ACHN > 100 µM | CAKI-1 > 100 µM | CCRF-CEM > 100 µM | EKVX > 100 µM | HL-60 39.5 µM | HOP-62 > 100 µM | HOP-92 9.2 µM | KM-20L2 > 100 µM | OVCAR-3 > 100 µM | RXF 393 > 100 µM | SF-295 > 100 µM | SK-MEL-28 > 100 µM | TK-10 > 100 µM

ClCCc1ccccc1CC1=NCCc2ccccc21
inactive: ACHN 30.8 µM | CAKI-1 33 µM | CCRF-CEM 39.9 µM | EKVX 22.1 µM | HCT-116 32.5 µM | HL-60 31.3 µM | HOP-62 34.8 µM | HOP-92 28.1 µM | MDA-MB-435 28.8 µM | NCI-H226 22.5 µM | NCI-H522 16.7 µM | OVCAR-3 28.8 µM | OVCAR-5 40.6 µM | RXF 393 21.7 µM | SF-295 39.3 µM | SF-539 38.8 µM | SK-MEL-28 47.6 µM | SR > 100 µM | TK-10 41.7 µM

c1ccc2c(c1)Sc1nccc3ccnc-2c13
inactive: ACHN 13.8 µM | CAKI-1 7.13 µM | CCRF-CEM 56.9 µM | EKVX 10.6 µM | HCT-116 27.4 µM | HL-60 27.8 µM | HOP-62 35.8 µM | HOP-92 43.6 µM | MDA-MB-435 39.5 µM | NCI-H226 27.9 µM | NCI-H522 21.9 µM | OVCAR-3 > 100 µM | OVCAR-5 > 100 µM | RXF 393 63.8 µM | SF-295 33.3 µM | SF-539 47.6 µM | SK-MEL-28 36.9 µM | SR 11.9 µM | TK-10 12.4 µM

CCOC(=O)C(NC(=O)CC(C)C)(NC(C)C)C(F)(F)F (stereo unspecified)
inactive: ACHN > 100 µM | CAKI-1 > 100 µM | CCRF-CEM > 100 µM | EKVX > 100 µM | HCT-116 > 100 µM | HL-60 > 100 µM | HOP-62 > 100 µM | HOP-92 > 100 µM | MDA-MB-435 > 100 µM | NCI-H226 > 100 µM | NCI-H522 > 100 µM | OVCAR-3 > 100 µM | OVCAR-5 > 100 µM | RXF 393 > 100 µM | SF-295 > 100 µM | SF-539 > 100 µM | SK-MEL-28 > 100 µM | SR > 100 µM | TK-10 > 100 µM

O=C(OCCN1CCCCC1)C(c1ccccc1)C1(O)CCSCC1 (stereo unspecified)
inactive: ACHN > 100 µM | CAKI-1 > 100 µM | CCRF-CEM > 100 µM | EKVX > 100 µM | HCT-116 > 100 µM | HL-60 > 100 µM | HOP-62 > 100 µM | HOP-92 > 100 µM | MDA-MB-435 > 100 µM | NCI-H226 > 100 µM | NCI-H522 > 100 µM | OVCAR-3 > 100 µM | OVCAR-5 > 100 µM | RXF 393 > 100 µM | SF-295 > 100 µM | SF-539 > 100 µM | SK-MEL-28 > 100 µM | SR > 100 µM | TK-10 > 100 µM

CCCC(S(=O)(=O)c1ccccc1)S(=O)(=O)c1ccccc1
inactive: ACHN > 100 µM | CAKI-1 > 100 µM | CCRF-CEM > 100 µM | EKVX > 100 µM | HCT-116 > 100 µM | HL-60 > 100 µM | HOP-62 > 100 µM | KM-20L2 > 100 µM | NCI-H226 86.7 µM | OVCAR-3 > 100 µM | OVCAR-5 > 100 µM | RXF 393 > 100 µM | SF-295 83.4 µM | SF-539 > 100 µM | SK-MEL-28 > 100 µM | TK-10 > 100 µM

Cc1nc(N)sc1/N=N/c1ccccc1Br
inactive: ACHN 43.1 µM | CAKI-1 43.5 µM | CCRF-CEM 3.75 µM | EKVX 18.3 µM | HCT-116 33.2 µM | HL-60 > 42.5 µM | HOP-62 39.3 µM | HOP-92 18 µM | MDA-MB-435 24.3 µM | NCI-H226 39.7 µM | NCI-H522 14.2 µM | OVCAR-3 38.2 µM | OVCAR-5 41.6 µM | RXF 393 21.8 µM | SF-295 44.9 µM | SF-539 > 44.1 µM | SK-MEL-28 33.1 µM | SR 35.2 µM | TK-10 37.9 µM

COC(=O)[C@]1(c2cc3ccccc3[nH]2)CC2CNC1C1OC(C)(C)OC21 (stereo partly specified)
inactive: ACHN > 100 µM | CAKI-1 > 100 µM | CCRF-CEM > 100 µM | EKVX > 100 µM | HCT-116 > 100 µM | HL-60 > 100 µM | HOP-62 > 100 µM | HOP-92 > 100 µM | MDA-MB-435 84.5 µM | NCI-H226 > 100 µM | NCI-H522 > 100 µM | OVCAR-3 > 100 µM | OVCAR-5 > 100 µM | RXF 393 60.1 µM | SF-295 > 100 µM | SF-539 > 100 µM | SK-MEL-28 > 100 µM | SR 47.9 µM | TK-10 > 100 µM

Source: ChEMBL document CHEMBL1201862, “PubChem BioAssay data set” (2004)
